From US11540518B2, “Fungicidal oxadiazoles” (FMC Corporation, priority 2017, dated 2023) come the findings set out here.

Holding throughout (assay type): in vivo
Assay [1] has as its system Puccinia recondita f. sp. tritici. The experiment in a line: Test C: wheat leaf rust control on wheat seedlings. The settings on record: sprayed to run-off on wheat seedlings, inoculated the following day, 100 = 100% disease control, 0 = no control. The gist of the method:
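Wheat seedlings were sprayed to run-off with compound suspension (ppm, acetone/water with 250 ppm PEG400), then inoculated with Puccinia recondita f. sp. tritici spores the next day. Plants were held 24 h in saturated atmosphere at 20 °C, then 6 days in a 20 °C growth chamber. Disease control is rated 0-100% relative to untreated controls.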

The subject of the next assay is Zymoseptoria tritici. The experiment in a line: Test B: wheat leaf blotch control on wheat seedlings. The settings on record: sprayed to run-off on wheat seedlings, inoculated the following day, 100 = 100% disease control, 0 = no control. The source says:
General protocol for preparing test suspensions for Tests A-C: the test compounds were first dissolved in acetone in an amount equal to 3% of the final volume and then suspended at the desired concentration (in ppm) in acetone and purified water (50/50 mix by volume) containing 250 ppm of the surfactant PEG400 (polyhydric alcohol esters). The resulting test suspensions were then used in Tests A-C. The test solution was sprayed to the point of run-off on wheat seedlings. The following day the seedlings were inoculated with a spore suspension of Zymoseptoria tritici (the causal agent of wheat leaf blotch) and incubated in a saturated atmosphere at 24° C. for 48 h, and then moved to a growth chamber at 20° C. for 17 days, after which time disease ratings were made. Results for Tests A-C are given in Table A. In the Table, a rating of 100 indicates 100% disease control and a rating of 0 indicates no disease control (relative to the controls). A dash (-) indicates the compound was not tested.

The test system of the next assay is Phakopsora pachyrhizi. The experiment in a line: Test A: Asian soybean rust control on soybean seedlings. The settings on record: sprayed to run-off on soybean seedlings, inoculated the following day, 100 = 100% disease control, 0 = no control. In short, it runs like this:
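Compounds in acetone/water (50/50) with 250 ppm PEG400 were sprayed to run-off on soybean seedlings, which were inoculated with P. pachyrhizi spores the next day. Plants were held in saturated atmosphere at 22° C for 24 h, then 8 days at 22° C, before visual rating (0–100% disease control vs controls).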

Setting [2] is: 250 ppm (incl. values marked * = tested at 250 ppm).

For the molecule `CC(C)NC(=O)OCc1ccc(-c2noc(C(F)(F)F)n2)cc1` [Compound 3], the “Test C disease control rating” value in assay [1] (250 ppm) turned out to be 100%. In addition, in the assay on Zymoseptoria tritici (setting [2]), the “Test B disease control rating” value was determined as 73%. Further, the “Test A disease control rating” value in the assay on Phakopsora pachyrhizi (250 ppm) came out at 100%.

Turning to `O=C(OC(c1ccc(-c2noc(C(F)(F)F)n2)cc1)c1cccc(Cl)c1)n1ccnc1` (stereo not drawn) [Compound 126], in assay [1] (10 ppm), the “Test C disease control rating” value was determined as 0%. Also, the “Test B disease control rating” value with Zymoseptoria tritici (setting [2]) is 88* %. Further, the “Test A disease control rating” value in the assay on Phakopsora pachyrhizi (10 ppm) was 99%.

For `CCCNC(=O)OCc1ccc(-c2noc(C(F)(F)F)n2)s1` [Compound 46], the “Test C disease control rating” value in assay [1] (10 ppm) is 97%. Moreover, the “Test B disease control rating” value in the assay with Zymoseptoria tritici (setting [2]) is on record as 97* %. For the same molecule, the “Test A disease control rating” value in the assay with Phakopsora pachyrhizi (10 ppm) is reported as 99%.

For `C#CCCNC(=O)OCc1ccc(-c2noc(C(F)(F)F)n2)cc1` [Compound 33], in assay [1] (10 ppm), the “Test C disease control rating” value worked out at 100%. Also, in the assay on Zymoseptoria tritici (setting [2]), the “Test B disease control rating” value is reported as 0* %. The “Test A disease control rating” value in the assay with Phakopsora pachyrhizi (10 ppm) is given as 100%.

On to `C#CCNC(=O)OCc1ccc(-c2noc(C(F)(F)F)n2)cc1` [Compound 12], for which the “Test C disease control rating” value in assay [1] (265 ppm) is given as 100%. Besides, the “Test B disease control rating” value in the assay with Zymoseptoria tritici (265 ppm) came to 100%. The “Test A disease control rating” value with Phakopsora pachyrhizi (265 ppm) is given as 100%.

With `Cc1ccc(C(OC(N)=O)c2ccc(-c3noc(C(F)(F)F)n3)cc2)cc1` (stereo not drawn) [Compound 143], the “Test C disease control rating” value in assay [1] (250 ppm) is 100%. Besides, in the assay on Zymoseptoria tritici (setting [2]), the “Test B disease control rating” value was 69%. In the assay on Phakopsora pachyrhizi (250 ppm), the “Test A disease control rating” value came out at 100%.

As for `O=C(NCCCl)OCc1ccc(-c2noc(C(F)(F)F)n2)cc1` [Compound 7], in assay [1] (260 ppm), the “Test C disease control rating” value is 100%. In addition, the “Test B disease control rating” value with Zymoseptoria tritici (260 ppm) is 98%. Besides, the “Test A disease control rating” value with Phakopsora pachyrhizi (260 ppm) turned out to be 100%.

For the molecule `NC(=O)OCc1ccc(-c2noc(C(F)(F)F)n2)cc1Cl` [Compound 86], in assay [1] (250 ppm), the “Test C disease control rating” value is listed as 100%. The “Test B disease control rating” value in the assay on Zymoseptoria tritici (setting [2]) is reported as 94%. In addition, the “Test A disease control rating” value in the assay with Phakopsora pachyrhizi (250 ppm) was 100%.

Consider `COC(=O)NN=Cc1ccc(-c2noc(C(F)(F)F)n2)s1` [Compound 141], for which the “Test C disease control rating” value in assay [1] (50 ppm) was 100%. Besides, the “Test B disease control rating” value in the assay with Zymoseptoria tritici (setting [2]) is reported as 93* %. In addition, in the assay on Phakopsora pachyrhizi (50 ppm), the “Test A disease control rating” value worked out at 100%.

Turning to `CNC(=O)OCCc1ccc(-c2noc(C(F)(F)F)n2)cc1` [Compound 42], the “Test C disease control rating” value in assay [1] (10 ppm) is 99%. In the assay on Zymoseptoria tritici (10 ppm), the “Test B disease control rating” value is reported as 0%. Further, the “Test A disease control rating” value in the assay on Phakopsora pachyrhizi (10 ppm) amounted to 100%.

Take `O=C(OC(c1ccc(F)cc1)c1ccc(-c2noc(C(F)(F)F)n2)cc1)n1ccnc1` (stereo not drawn) [Compound 127]: the “Test C disease control rating” value in assay [1] (250 ppm) was found to be 100%. The “Test B disease control rating” value in the assay with Zymoseptoria tritici (setting [2]) worked out at 99%. In addition, in the assay on Phakopsora pachyrhizi (250 ppm), the “Test A disease control rating” value is on record as 100%.

Regarding `Cc1ccccc1C(OC(N)=O)c1ccc(-c2noc(C(F)(F)F)n2)cc1` (stereo not drawn) [Compound 128], the “Test C disease control rating” value in assay [1] (250 ppm) is listed as 100%. Also, in the assay on Zymoseptoria tritici (setting [2]), the “Test B disease control rating” value is reported as 88%. Besides, the “Test A disease control rating” value in the assay with Phakopsora pachyrhizi (250 ppm) was found to be 100%.

Regarding `CCNC(=O)OC(c1ccc(-c2noc(C(F)(F)F)n2)cc1)c1cccc(Cl)c1` (stereo not drawn) [Compound 103], the “Test C disease control rating” value in assay [1] (250 ppm) came to 86%. Also, the “Test B disease control rating” value in the assay with Zymoseptoria tritici (setting [2]) was 20%. Moreover, the “Test A disease control rating” value with Phakopsora pachyrhizi (250 ppm) was found to be 100%.

Regarding `CNC(=O)OC(c1ccc(-c2noc(C(F)(F)F)n2)cc1)c1ccccc1C` (stereo not drawn) [Compound 129], the “Test C disease control rating” value in assay [1] (250 ppm) turned out to be 100%. Moreover, the “Test B disease control rating” value in the assay with Zymoseptoria tritici (setting [2]) was determined as 74%. The “Test A disease control rating” value in the assay on Phakopsora pachyrhizi (250 ppm) was found to be 100%.

Take `C=C(C)CNC(=O)OCc1cccc(-c2noc(C(F)(F)F)n2)c1` [Compound 98]: the “Test C disease control rating” value in assay [1] (250 ppm) amounted to 100%. In addition, the “Test B disease control rating” value in the assay on Zymoseptoria tritici (setting [2]) was found to be 3%. Moreover, in the assay with Phakopsora pachyrhizi (250 ppm), the “Test A disease control rating” value was found to be 100%.

On to `CC(C)(C)NC(=O)OCc1ccc(-c2noc(C(F)(F)F)n2)cc1` [Compound 16], for which, in assay [1] (255 ppm), the “Test C disease control rating” value was found to be 100%. Also, the “Test B disease control rating” value in the assay with Zymoseptoria tritici (255 ppm) was 19%. Moreover, the “Test A disease control rating” value in the assay with Phakopsora pachyrhizi (255 ppm) was 100%.

Regarding `C#CCNC(=O)OCc1cccc(-c2noc(C(F)(F)F)n2)c1` [Compound 96], the “Test C disease control rating” value in assay [1] (250 ppm) turned out to be 100%. Also, in the assay on Zymoseptoria tritici (setting [2]), the “Test B disease control rating” value is on record as 64%. Besides, in the assay on Phakopsora pachyrhizi (250 ppm), the “Test A disease control rating” value worked out at 100%.

As to `Cc1ccc(C(OC(=O)n2ccnc2)c2ccc(-c3noc(C(F)(F)F)n3)cc2)cc1` (stereo not drawn) [Compound 100], in assay [1] (250 ppm), the “Test C disease control rating” value amounted to 97%. In addition, the “Test B disease control rating” value with Zymoseptoria tritici (setting [2]) was found to be 98%. In addition, in the assay with Phakopsora pachyrhizi (250 ppm), the “Test A disease control rating” value worked out at 100%.

On to `CCNC(=O)OC(COC)Cc1ccc(-c2noc(C(F)(F)F)n2)cc1` (stereo not drawn) [Compound 75], for which the “Test C disease control rating” value in assay [1] (10 ppm) is recorded as 91%. Moreover, the “Test B disease control rating” value in the assay on Zymoseptoria tritici (setting [2]) is recorded as 97* %. In the assay on Phakopsora pachyrhizi (10 ppm), the “Test A disease control rating” value is on record as 100%.

As for `CNC(=O)OC(c1ccc(-c2noc(C(F)(F)F)n2)cc1)c1cccc(Cl)c1` (stereo not drawn) [Compound 102], the “Test C disease control rating” value in assay [1] (250 ppm) is on record as 90%. The “Test B disease control rating” value in the assay on Zymoseptoria tritici (setting [2]) is given as 96%. The “Test A disease control rating” value in the assay on Phakopsora pachyrhizi (250 ppm) was found to be 100%.
